This assay has as its system MCH receptors. Nature of the assay: MCH receptor activity class (method not given). To be noted: activity class 1-3: percent of control at 10^-7 M or IC50.

With `CCCCCCCCOC(=O)NC[C@H]1CC[C@@H](Nc2nccc(N(C)C)n2)CC1` [compound 1646], the class is reported as 3 (Class 3 The value of percent of control at 10^−7 M was more than 60% or the value of IC50 was more than 200 nM.).

On to `CCOC(=O)NC[C@H]1CC[C@@H](Nc2nccc(N(C)C)n2)CC1` [compound 1647], for which the class is given as 3 (Class 3 The value of percent of control at 10^−7 M was more than 60% or the value of IC50 was more than 200 nM.). For the compound `CN(C)c1ccnc(NC2CCC(CNC(=O)OCc3ccc([N+](=O)[O-])cc3)CC2)n1` (stereo not drawn) [compound 1648], the class is on record as 3 (Class 3 The value of percent of control at 10^−7 M was more than 60% or the value of IC50 was more than 200 nM.). As to `CN(C)c1ccnc(N[C@H]2CC[C@@H](CNC(=O)Oc3ccc4ccccc4c3)CC2)n1` [compound 1649], the class was 3 (Class 3 The value of percent of control at 10^−7 M was more than 60% or the value of IC50 was more than 200 nM.). To `C=CCOC(=O)NC[C@H]1CC[C@@H](Nc2nccc(N(C)C)n2)CC1` [compound 1650] belongs 3 (Class 3 The value of percent of control at 10^−7 M was more than 60% or the value of IC50 was more than 200 nM.); to `CN(C)c1ccnc(NC2CCC(CNC(=O)OCc3ccccc3)CC2)n1` (stereo not drawn) [compound 1651], 3 (Class 3 The value of percent of control at 10^−7 M was more than 60% or the value of IC50 was more than 200 nM.).

`CN(C)c1ccnc(N[C@H]2CC[C@@H](CNC(=O)Oc3ccccc3)CC2)n1` [compound 1652]: the class is reported as 3 (Class 3 The value of percent of control at 10^−7 M was more than 60% or the value of IC50 was more than 200 nM.). On to `CC(C)[C@@H]1CC[C@@H](C)CC1OC(=O)NC[C@H]1CC[C@@H](Nc2nccc(N(C)C)n2)CC1` (stereo partly drawn) [compound 1653], for which the class is recorded as 3 (Class 3 The value of percent of control at 10^−7 M was more than 60% or the value of IC50 was more than 200 nM.). Consider `Cc1ccc(OC(=O)NC[C@H]2CC[C@@H](Nc3nccc(N(C)C)n3)CC2)cc1` [compound 1654], for which the class was 3 (Class 3 The value of percent of control at 10^−7 M was more than 60% or the value of IC50 was more than 200 nM.).

Regarding `COC(=O)NC[C@H]1CC[C@@H](Nc2nccc(N(C)C)n2)CC1` [compound 1655], the class was 3 (Class 3 The value of percent of control at 10^−7 M was more than 60% or the value of IC50 was more than 200 nM.).

As for `CN(C)c1ccnc(N[C@H]2CC[C@@H](CNC(=O)OCc3ccccc3Cl)CC2)n1` [compound 1656], the class was 3 (Class 3 The value of percent of control at 10^−7 M was more than 60% or the value of IC50 was more than 200 nM.).

As to `CN(C)c1ccnc(N[C@H]2CC[C@@H](CNC(=O)OCC3c4ccccc4-c4ccccc43)CC2)n1` [compound 1657], the class is 3 (Class 3 The value of percent of control at 10^−7 M was more than 60% or the value of IC50 was more than 200 nM.). On to `CN(C)c1ccnc(N[C@H]2CC[C@@H](CNC(=O)OCC(Cl)(Cl)Cl)CC2)n1` [compound 1658], for which the class is reported as 3 (Class 3 The value of percent of control at 10^−7 M was more than 60% or the value of IC50 was more than 200 nM.). For `CN(C)c1nc(N[C@H]2CC[C@@H](NC(=O)Nc3ccccc3Cl)CC2)nc2c1CCCC2` [compound 1659], the class is listed as 3 (Class 3 The value of percent of control at 10^−7 M was more than 60% or the value of IC50 was more than 200 nM.).

In the case of `Cc1cccc(C)c1NC(=O)N[C@H]1CC[C@@H](Nc2nc3c(c(N(C)C)n2)CCCC3)CC1` [compound 1660], the class was 3 (Class 3 The value of percent of control at 10^−7 M was more than 60% or the value of IC50 was more than 200 nM.).

With `CN(C)c1nc(N[C@H]2CC[C@@H](NC(=O)Nc3ccc(F)cc3F)CC2)nc2c1CCCC2` [compound 1661], the class is 3 (Class 3 The value of percent of control at 10^−7 M was more than 60% or the value of IC50 was more than 200 nM.). Take `CCc1cccc(C)c1NC(=O)N[C@H]1CC[C@@H](Nc2nc3c(c(N(C)C)n2)CCCC3)CC1` [compound 1662]: the class is recorded as 1 (Class 1: The value of percent of control at 10^−7 M was less than 40% or the value of IC50 was less than 50 nM.). Turning to `CN(C)c1nc(N[C@H]2CC[C@@H](NC(=O)Nc3ccc(F)cc3)CC2)nc2c1CCCC2` [compound 1664], the class is 2 (Class 2: The value of percent of control at 10^−7 M was from 40% to 60% or the value of IC′50 was from 50 nM to 200 nM.). `CSc1ccc(NC(=O)N[C@H]2CC[C@@H](Nc3nc4c(c(N(C)C)n3)CCCC4)CC2)cc1` [compound 1665]: the class was 3 (Class 3 The value of percent of control at 10^−7 M was more than 60% or the value of IC50 was more than 200 nM.).

For the compound `CN(C)c1nc(N[C@H]2CC[C@@H](NC(=O)Nc3ccccc3C(F)(F)F)CC2)nc2c1CCCC2` [compound 1666], the class is listed as 3 (Class 3 The value of percent of control at 10^−7 M was more than 60% or the value of IC50 was more than 200 nM.).

With `Cc1cc(C)c(NC(=O)N[C@H]2CC[C@@H](Nc3nc4c(c(N(C)C)n3)CCCC4)CC2)c(C)c1` [compound 1667], the class is 1 (Class 1: The value of percent of control at 10^−7 M was less than 40% or the value of IC50 was less than 50 nM.). As for `Cc1ccccc1NC(=O)N[C@H]1CC[C@@H](Nc2nc3c(c(N(C)C)n2)CCCC3)CC1` [compound 1668], the class is given as 3 (Class 3 The value of percent of control at 10^−7 M was more than 60% or the value of IC50 was more than 200 nM.). In the case of `CN(C)c1nc(N[C@H]2CC[C@@H](NC(=O)Nc3c(Cl)cc(Cl)cc3Cl)CC2)nc2c1CCCC2` [compound 1669], the class is listed as 2 (Class 2: The value of percent of control at 10^−7 M was from 40% to 60% or the value of IC′50 was from 50 nM to 200 nM.). Consider `CN(C)c1nc(N[C@H]2CC[C@@H](NC(=O)Nc3c(F)cc(Br)cc3Br)CC2)nc2c1CCCC2` [compound 1671, N-(2,4-dibromo-6-fluorophenyl)-N′-(cis-4-{[4-(dimethylamino)-5,6,7,8-tetrahydroquinazolin-2-yl]amino}cyclohexyl)urea], for which the class was 2 (Class 2: The value of percent of control at 10^−7 M was from 40% to 60% or the value of IC′50 was from 50 nM to 200 nM.).

For `CCc1cccc(CC)c1NC(=O)N[C@H]1CC[C@@H](Nc2nc3c(c(N(C)C)n2)CCCC3)CC1` [compound 1672], the class is reported as 1 (Class 1: The value of percent of control at 10^−7 M was less than 40% or the value of IC50 was less than 50 nM.).

On to `CN(C)c1nc(N[C@H]2CC[C@@H](NC(=O)Nc3c(Cl)cccc3C(F)(F)F)CC2)nc2c1CCCC2` [compound 1673], for which the class is 3 (Class 3 The value of percent of control at 10^−7 M was more than 60% or the value of IC50 was more than 200 nM.). On to `Cc1cccc(Cl)c1NC(=O)N[C@H]1CC[C@@H](Nc2nc3c(c(N(C)C)n2)CCCC3)CC1` [compound 1674], for which the class was 3 (Class 3 The value of percent of control at 10^−7 M was more than 60% or the value of IC50 was more than 200 nM.).

Take `CN(C)c1nc(N[C@H]2CC[C@@H](NC(=O)NCc3ccccc3Cl)CC2)nc2c1CCCC2` [compound 1675, N-(2-chlorobenzyl)-N′-(cis-4-{[4-(dimethylamino)-5,6,7,8-tetrahydroquinazolin-2-yl]amino}cyclohexyl)urea]: the class is 2 (Class 2: The value of percent of control at 10^−7 M was from 40% to 60% or the value of IC′50 was from 50 nM to 200 nM.). Take `CCc1cccc(C(C)C)c1NC(=O)N[C@H]1CC[C@@H](Nc2nc3c(c(N(C)C)n2)CCCC3)CC1` [compound 1676]: the class is recorded as 2 (Class 2: The value of percent of control at 10^−7 M was from 40% to 60% or the value of IC′50 was from 50 nM to 200 nM.). Take `CCc1ccccc1NC(=O)N[C@H]1CC[C@@H](Nc2nc3c(c(N(C)C)n2)CCCC3)CC1` [compound 1677]: the class is 2 (Class 2: The value of percent of control at 10^−7 M was from 40% to 60% or the value of IC′50 was from 50 nM to 200 nM.).

In the case of `CN(C)c1nc(N[C@H]2CC[C@@H](NC(=O)Nc3ccccc3I)CC2)nc2c1CCCC2` [compound 1678], the class is 3 (Class 3 The value of percent of control at 10^−7 M was more than 60% or the value of IC50 was more than 200 nM.). For the compound `Cc1cccc(C(C)C)c1NC(=O)N[C@H]1CC[C@@H](Nc2nc3c(c(N(C)C)n2)CCCC3)CC1` [compound 1679], the class was 2 (Class 2: The value of percent of control at 10^−7 M was from 40% to 60% or the value of IC′50 was from 50 nM to 200 nM.).

With `CC(C)c1ccccc1NC(=O)N[C@H]1CC[C@@H](Nc2nc3c(c(N(C)C)n2)CCCC3)CC1` [compound 1680], the class is 3 (Class 3 The value of percent of control at 10^−7 M was more than 60% or the value of IC50 was more than 200 nM.). To `Cc1c(NC(=O)N[C@H]2CC[C@@H](Nc3nc4c(c(N(C)C)n3)CCCC4)CC2)cccc1[N+](=O)[O-]` [compound 1681] belongs 3 (Class 3 The value of percent of control at 10^−7 M was more than 60% or the value of IC50 was more than 200 nM.); to `CCCc1ccccc1NC(=O)N[C@H]1CC[C@@H](Nc2nc3c(c(N(C)C)n2)CCCC3)CC1` [compound 1682], 3 (Class 3 The value of percent of control at 10^−7 M was more than 60% or the value of IC50 was more than 200 nM.); to `Cc1cccc(C(C)(C)C)c1NC(=O)N[C@H]1CC[C@@H](Nc2nc3c(c(N(C)C)n2)CCCC3)CC1` [compound 1683, N-(2-tert-butyl-6-methylphenyl)-N′-(cis-4-{[4-(dimethylamino)-5,6,7,8-tetrahydroquinazolin-2-yl]amino}cyclohexyl)urea], 2 (Class 2: The value of percent of control at 10^−7 M was from 40% to 60% or the value of IC′50 was from 50 nM to 200 nM.).

As to `CN(C)c1nc(N[C@H]2CC[C@@H](NC(=O)Nc3ccccc3C(C)(C)C)CC2)nc2c1CCCC2` [compound 1684], the class is listed as 3 (Class 3 The value of percent of control at 10^−7 M was more than 60% or the value of IC50 was more than 200 nM.). As for `Cc1c(Cl)cccc1NC(=O)N[C@H]1CC[C@@H](Nc2nc3c(c(N(C)C)n2)CCCC3)CC1` [compound 1685], the class is recorded as 3 (Class 3 The value of percent of control at 10^−7 M was more than 60% or the value of IC50 was more than 200 nM.).

For the compound `CN(C)c1nc(N[C@H]2CC[C@@H](NC(=O)Nc3c(F)cc(Br)cc3F)CC2)nc2c1CCCC2` [compound 1686], the class is 3 (Class 3 The value of percent of control at 10^−7 M was more than 60% or the value of IC50 was more than 200 nM.).

These data come from US20050197350A1, “Novel quinoline, tetrahydroquinazoline, and pyrimidine derivatives and methods of treatment related to the use thereof” (TAISHO PHARMACEUTICAL CO., LTD., priority 2003, published 2005).
